Results taken from patent US20190275012A9, “SUBSTITUTED THIAZOLO-PYRIDINE COMPOUNDS AS MALT1 INHIBITORS” (Lupin Limited, priority 2016, published 2019).

Assays:
full length MALT1 enzyme = target: T1, full length MALT1 enzyme (Homo sapiens, UniProt Q9UDY8); assay: MALT1 biochemical assay (fluorescence based, Ac-Leu-Arg-Ser-Arg-AMC cleavage); details: full length MALT1 protein, 2 h pre-incubation at RT, tetrapeptide substrate Ac-Leu-Arg-Ser-Arg-AMC, read-out: Malt 1 inhibition IC50
T1 construct: a fluorescence based assay with full length MALT1 enzyme
T1 sequence (Q9UDY8 1-824): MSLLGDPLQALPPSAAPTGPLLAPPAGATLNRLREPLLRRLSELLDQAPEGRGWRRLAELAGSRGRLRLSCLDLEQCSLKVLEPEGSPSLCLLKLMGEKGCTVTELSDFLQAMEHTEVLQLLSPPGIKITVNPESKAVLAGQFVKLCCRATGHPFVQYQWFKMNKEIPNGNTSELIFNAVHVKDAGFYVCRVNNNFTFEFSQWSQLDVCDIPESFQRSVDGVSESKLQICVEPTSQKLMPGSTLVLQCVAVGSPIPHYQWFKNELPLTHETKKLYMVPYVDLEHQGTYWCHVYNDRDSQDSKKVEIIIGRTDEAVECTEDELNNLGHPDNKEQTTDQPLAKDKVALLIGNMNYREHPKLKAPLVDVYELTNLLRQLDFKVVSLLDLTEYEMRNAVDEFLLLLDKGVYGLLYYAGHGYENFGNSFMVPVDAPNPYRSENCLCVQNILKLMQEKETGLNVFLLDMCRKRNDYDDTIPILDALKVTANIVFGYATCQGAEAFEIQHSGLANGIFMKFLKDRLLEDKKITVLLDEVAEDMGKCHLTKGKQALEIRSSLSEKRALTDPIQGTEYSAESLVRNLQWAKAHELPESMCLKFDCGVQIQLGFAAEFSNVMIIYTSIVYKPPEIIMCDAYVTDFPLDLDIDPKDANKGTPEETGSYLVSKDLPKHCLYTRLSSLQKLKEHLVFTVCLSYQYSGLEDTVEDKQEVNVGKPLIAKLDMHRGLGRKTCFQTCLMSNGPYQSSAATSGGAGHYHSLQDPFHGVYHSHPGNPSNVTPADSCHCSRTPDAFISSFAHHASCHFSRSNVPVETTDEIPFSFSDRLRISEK
Description: The biochemical potency of the MALT1 inhibitors was tested by using a fluorescence based assay with full length MALT1 enzyme. The assay principle makes use of the preferential cleavage by MALT1 after the Arginine residue. Thus, the substrate used is a tetrapeptide (Ac-Leu-Arg-Ser-Arg-AMC; Catalogue # SMAMC013, SM Biochemicals) which is cleaved by active MALT1 releasing the AMC which is fluorescent. Upon addition of the MALT1 protease inhibitors, the proteolytic activity (and accordingly AMC fluorescence) is reduced in a dose dependent manner. The kinetic characterization of the enzymatic reaction was measured by determining the Michaelis constant, Km, of the reaction (approximately 130=A/I). The assay buffer consisted of 50 mM MES, 150 mM NaCl, 0.1% w/v CHAPS, 1 M Ammonium citrate and 10 mM DTT (pH=7). The assay was established for the 384-well plate format using black microtiter square well plates (Optiplate 384-F, Perkin Elmer). The test compounds were dissolved in 100% DMSO at a stock concentration of 10 mM. Serial dilutions were made first in 100% DMSO. The final concentration of DMSO was 0.5% by wt.
For determining the extent of inhibition of MALT1 protease activity by MALT1 inhibitors, 10⇒| of the test compound solutions were pre-incubated with 10⇒| of MALT1 full length protein (100-300 ng protein/well) for 2 h at RT. This was followed by 10⇒| of substrate addition at a final concentration of 100⇒M for an additional 4-12 h. The increase in assay signal was linear over this period of time and proportional with increase in the enzyme content. The final concentrations of the test compounds typically ranged from 10000 nM to 0.03 nM in an alternate 3.16 and 3 serial dilutions. The positive control for the reaction contained enzyme and DMSO (without any test compound) and was considered to have 100% enzyme activity (0% inhibition) and the negative control containing only buffer and DMSO (without any enzyme) was considered to have no enzymatic activity (100% inhibition). The fluorescence was recorded in a Spectra Max plate reader, Molecular Devices, with a fluorescence excitation at 360 nm and emission recording at 460 nm. The fluorescence units were transformed to percentage inhibitions by using the positive and negative controls as references as per the following formula.
[formula] Positive control=Reaction containing enzyme+substrate+DMSO
Negative control=Reaction containing substrate+DMSO but no enzyme
The IC50 values of individual compounds were calculated with Non Linear Regression Analysis using Graph Pad Prism (Graph Pad software, Inc, USA).

[1] = test system: NF-kB transcriptional activity in HEK-293-NF-kB-Luc cell line overexpressing MALT1; assay: NF-kB reporter assay (luciferase, MALT1 stably overexpressed); assay type: cell-based; details: Homo sapiens, 24 h, HEK-293-NF-kB-Luc cells stably overexpressing MALT1, 24 h treatment, Bright Glo luminescence; read-out: NF-kB inhibition IC50
Summary of the method: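 HEK-293-NF-κB-Luc cells stably overexpressing MALT1 were seeded overnight, then exposed to test compounds for 24 h. Bright Glo added 10 min at ambient temperature and luminescence read; % inhibition calculated against 0.1% DMSO controls.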

Compound | IC50 (full length MALT1 enzyme) | IC50 [1]
COCC1CCCN(c2c(NC(=O)Nc3cnc(-n4nccn4)c(Cl)c3)cnc3sc(C)nc23)C1 (racemic) [Compound 50, (ě)-1-(5-Chloro-6-(2H-1,2,3-triazol-2-yl)pyridin-3-yl)-3-(7-(3-(methoxymethyl)piperidin-1-yl)-2-methylthiazolo[5,4-b]pyridin-6-yl)urea] | 1 to 50 nM | 101 to 500 nM
COCC1CCCN(c2c(NC(=O)Nc3cnc(OC)c(Cl)c3)cnc3sc(C)nc23)C1 (racemic) [Compound 51, (ě)-1-(5-Chloro-6-methoxypyridin-3-yl)-3-(7-(3-(methoxymethyl)piperidin-1-yl)-2-methylthiazolo[5,4-b]pyridin-6-yl)urea] | 51 to 100 nM | 501 to 1500 nM
COC1CCCN(c2c(NC(=O)Nc3cnc(-n4nccn4)c(Cl)c3)cnc3sc(C)nc23)C1 (racemic) [Compound 52, (ě)-1-(5-Chloro-6-(2H-1,2,3-triazol-2-yl)pyridin-3-yl)-3-(7-(3-methoxypiperidin-1-yl)-2-methylthiazolo[5,4-b]pyridin-6-yl)urea] | 1 to 50 nM | 101 to 500 nM
Cc1nc2c(C(C)O)c(NC(=O)Nc3cnc(-n4nccn4)c(C(F)(F)F)c3)cnc2s1 (single isomer, unassigned) [Compound 71b, 1-(6-(2H-1,2,3-Triazol-2-yl)-5-(trifluoromethyl)pyridin-3-yl)-3-(7-(1-hydroxyethyl)-2-methylthiazolo[5,4-b]pyridin-6-yl)urea] | 1 to 50 nM | 1 to 100 nM
Cc1nc2c(C(C)N(C)C)c(NC(=O)Nc3cnc(-n4nccn4)c(C(F)(F)F)c3)cnc2s1 (single isomer, unassigned) [Compound 74b, 1-(6-(2H-1,2,3-Triazol-2-yl)-5-(trifluoromethyl)pyridin-3-yl)-3-(7-(1-(dimethylsmino)ethyl)-2-methylthiazolo[5,4-b]pyridin-6-yl)urea] | 1 to 50 nM | 1 to 100 nM
COC(c1c(NC(=O)Nc2cnc(-n3nccn3)c(C(F)(F)F)c2)cnc2sc(C)nc12)C(C)C (single isomer, unassigned) [Compound 78b, 1-(6-(2H-1,2,3-Triazol-2-yl)-5-(trifluoromethyl)pyridin-3-yl)-3-(7-(1-methexyl-methylpropyl)-2-methylthiazolo[5,4-b]pyridin-6-yl)urea] | 1 to 50 nM | 1 to 100 nM
COC(c1ccccc1)c1c(NC(=O)Nc2cnc(-n3nccn3)c(Cl)c2)cnc2sc(C)nc12 (single isomer, unassigned) [Compound 84b, 1-(5-Chloro-6-(2H-1,2,3-triazol-2-yl)pyridin-3-yl)-3-(7-(methoxy(phenyl)methyl)-2-methylthiazolo[5,4-b]pyridin-6-yl)urea] | 1 to 50 nM | 1 to 100 nM
COc1nc(-n2nccn2)c(C(F)(F)F)cc1NC(=O)Nc1cnc2sc(C)nc2c1C(C)OC (single isomer, unassigned) [Compound 88b, 1-(2-Methoxy-6-(2H-1,2,3-triazol-2-yl)-5-(trifluoromethyl)pyridin-3-yl)-3-(7-(1-methoxyethyl)-2-methylthiazolo[5,4-b]pyridin-6-yl)urea] | 1 to 50 nM | 1 to 100 nM
COc1nc(-n2nccn2)c(Cl)cc1NC(=O)Nc1cnc2sc(C)nc2c1C(C)OC (single isomer, unassigned) [Compound 90a, 1-(5-Chloro-2-methoxy-6-(2H-1,2,3-triazol-2-yl)pyridin-3-yl)-3-(7-(1-methoxyethyl)-2-methylthiazolo[5,4-b]pyridin-6-yl)urea] | 1 to 50 nM | 1 to 100 nM
CCC(OC)c1c(NC(=O)Nc2ccc(-n3nccn3)c(Cl)c2)cnc2sc(C)nc12 (single isomer, unassigned) [Compound 126b, 1-(3-Chloro-4-(2H-1,2,3-triazol-2-yl)phenyl)-3-(7-(1-methoxypropyl)-2-methylthiazolo[5,4-b]pyridin-6-yl)urea] | 1 to 50 nM | 1 to 100 nM
COC(C)c1c(NC(=O)Nc2cnc(-n3nccn3)c(C(F)(F)F)c2)cnc2sc(C)nc12 (single isomer, unassigned) [Compound 142a, 1-(6-(2H-1,2,3-Triazol-2-yl)-5-(trifluoromethyl)pyridin-3-yl)-3-(7-(1-methoxyethyl)-2-methylthiazolo[5,4-b]pyridin-6-yl)urea] | 1 to 50 nM | 1 to 100 nM
COC(=O)c1cc(Cl)cc(NC(=O)Nc2cnc3sc(C)nc3c2C(C)OC)c1 (single isomer, unassigned) [Compound 152b, Methyl 3-chloro-5-(3-(7-(1-methoxyethyl)-2-methylthiazolo[5,4-b]pyridin-6-yl)ureido)benzoate] | 1 to 50 nM | 1 to 100 nM
COc1nc(-n2nccn2)c(C(F)(F)F)cc1NC(=O)Nc1cnc2sc(C)nc2c1C(OC)C1CC1 (single isomer, unassigned) [Compound 155a, 1-(7-(Cyclopropyl(methoxy)methyl)-2-methylthiazolo[5,4-b]pyridin-6-yl)-3-(2-methoxy-6-(2H-1,2,3-triazol-2-yl)-5-(trifluoromethyl)pyridin-3-yl)urea] | 1 to 50 nM | 1 to 100 nM
CCOC(C)c1c(NC(=O)Nc2cc(Cl)cnc2OC)cnc2sc(C)nc12 (single isomer, unassigned) [Compound 167b, 1-(5-Chloro-2-methoxypyridin-3-yl)-3-(7-(1-ethoxyethyl)-2-methylthiazolo[5,4-b]pyridin-6-yl)urea] | 51 to 100 nM | 1 to 100 nM
COC(C)c1c(NC(=O)Nc2ccc(-n3ccnn3)c(Cl)c2)cnc2sc(C)nc12 (single isomer, unassigned) [Compound 198b, (S) or (R)-1-(3-Chloro-4-(1H-1,2,3-triazol-1-yl)phenyl)-3-(7-(1-methoxyethyl)-2-methylthiazolo[5,4-b]pyridin-6-yl)urea] | 1 to 50 nM | 1 to 100 nM
COC(C)(C)c1c(NC(=O)Nc2ccc(-n3nccn3)c(C(F)(F)F)c2)cnc2sc(C)nc12 [Compound 97, 1-(4-(2H-1,2,3-Triazol-2-yl)-3-(trifluoromethyl)phenyl)-3-(7-(2-methoxypropan-2-yl)-2-methylthiazolo[5,4-b]pyridin-6-yl)urea] | 1 to 50 nM | 
COc1ncc(NC(=O)Nc2cnc3sc(C)nc3c2N2CCOCC2)cc1Cl [Compound 112, 1-(5-Chloro-6-methoxypyridin-3-yl)-3-(2-methyl-7-morpholinothiazolo[5,4-b]pyridin-6-yl)urea] | 51 to 100 nM | 
CCc1nc2c(C3CC3)c(NC(=O)Nc3cnc(OC)c(Cl)c3)cnc2s1 [Compound 116, 1-(5-Chloro-6-methoxypyridin-3-yl)-3-(7-cyclopropyl-2-ethylthiazolo[5,4-b]pyridin-6-yl)urea] | 1 to 50 nM | 
Cc1nc2c(C3CC3)c(NC(=O)Nc3ccc(OC(F)F)c(Cl)c3)cnc2s1 [Compound 193, 1-(3-Chloro-4-(difluoromethoxy)phenyl)-3-(7-cyclopropyl-2-methylthiazolo[5,4-b]pyridin-6-yl)urea] | 51 to 100 nM | 
